# Data reported in the NIST ThermoML archive (doi:10.1021/acs.jced.7b00263).
# ± gives the expanded uncertainty stated by the source.
# Conditions: Liquid, Closed cell (Static) method
smiles,measurement,setting,value
"F/C=C\C(F)(F)F [(Z)-1,3,3,3-tetrafluoro-1-propene]",vapor or sublimation pressure,353.17 K,858.3 ± 1.4 kPa
same,vapor or sublimation pressure,373.14 K,1347.5 ± 2.1 kPa
same,vapor or sublimation pressure,393.12 K,2023.7 ± 3.2 kPa
same,vapor or sublimation pressure,413.14 K,2940.4 ± 4.6 kPa
